Source: patent publication US6342335B1, “Polymethine compounds, method of producing same, and use thereof” (Yamamoto Chemicals, Inc., priority 1999, dated 2002)

Assays:
[1] = Solubility test in methyl ethyl ketone; format: physicochemical; conditions: 25° C. overnight, visual inspection for insoluble matter
Experimental: The solubility of the polymethine compound of the invention in methyl ethyl ketone as well as the solubilities of said known Compound A and Compound B were measured. Solubility measurements were carried out by the following method.
A 5 ml screw tube was charged with 200 mg of each polymethine compound and 1 ml of methyl ethyl ketone and agitated for dissolution with Mix-Rotor at 25° C. overnight. Each sample was visually inspected for insoluble matter. When no insoluble residue was found, the solubility was rated ≧20%. When an insoluble residue was found, the solubility was rated less than 20%.

[2] = Maximum absorption wavelength (λmax) in diacetone alcohol; format: physicochemical
Experimental: The maximum absorption wavelength (λmax) of the polymethine compound of the present invention in diacetone alcohol as well as those of known Compound A and Compound B were measured.

Solubility (g/ml) [1]	λmax [2] [nm]	SMILES
≧20%	822	COCCN1/C(=C\C=C2/CCCC(/C=C/C3=[N+](CCOC)c4c(C)cc(OC)cc4C3(C)C)=C2Cl)C(C)(C)c2cc(OC)cc(C)c21 [Compound (55), 2-(2-{2-chloro-3-[(1,3-dihydro-3,3,7-trimethyl-5-methoxy-1-methoxyethyl-2H-indol-2-ylidene)ethylidene]-1-cyclohexen-1-yl}ethenyl)-3,3,7-trimethyl-5-methoxy-1-methoxyethylindolium=tetrafluoroborate]
	788	COCCN1/C(=C\C=C2/CCCC(/C=C/C3=[N+](CCOC)c4ccccc4C3(C)C)=C2Cl)C(C)(C)c2ccccc21 [Compound A, reference compound]
